Reference: EP4778921A1, “SALT FORM AND CRYSTAL FORM OF NITROGEN-CONTAINING HETEROCYCLIC DERIVATIVE INHIBITOR, AND PREPARATION METHOD THEREFOR AND USE THEREOF” (Shanghai Hansoh Biomedical Co., Ltd., priority 2023, dated 2025)
Structures can show the parent of a compound that is named as a salt.

Experiments:
Ba/F3 EGFR Del19/C797S = experiment: Cell proliferation inhibition experiment (Cell Titer-Glo); assay type: cell-based; details: Mus musculus, 72 hours, read-out: Ba/F3 EGFR Dell9/C797S IC50
Procedure: (§1) Experimental objective: The objective of this test example is to test the inhibitory activity of compounds on the proliferation of different EGFR C797S drug-resistant mutant cell lines Ba/F3 EGFR Del19/T790M/C797S, Ba/F3 EGFR L858R/T790M/C797S, and Ba/F3 EGFR Del19/C797S. Experimental instruments: Centrifuge (Eppendorf 5810R); Microplate reader (BioTek Synergy H1) Pipette (Eppendorf or Rainin); Carbon dioxide incubator (Thermo 311) Cell counter (Life Countess II) Experimental reagents and consumables: • Ba/F3 EGFR Del19/T790M/C797S cells were purchased from KYinno Biotechnology Co., Ltd.; • Ba/F3 EGFR Del19/C797S cells were purchased from CoBioer Biosciences Co., Ltd.; • Ba/F3 EGFR L858R/T790M/C797S cells were purchased from CoBioer Biosciences Co., Ltd.; • Cell Titer-Glo was purchased from Promega, with a catalogue number of G7573; • RPMI 1640 was purchased from Gibco, with a catalogue number of 22400089; • FBS was purchased from Gibco, with a catalogue number of 10091148; • cell culture plates were purchased from Corning, with a catalogue number of 3610. Experimental methods: The inhibitory activity of the compound on the proliferation of different EGFR C797S drug-resistant mutant cell lines was detected using the Cell Titer-Glo method. The different cell lines were cultured in RPMI 1640 complete culture medium containing 10% FBS under conditions of 37°C and 5% CO2, the cells were collected by centrifugation when growing to a certain density, and adjusted to appropriate cell density after counting, the cells were spread on a white 96-well plate at 90 µL/well, and cultured in a 37°C, 5% CO2 incubator overnight, prepared compound solutions at different concentrations were added at 10 µL/well, corresponding solvent controls were set, and all wells were cultured in a 37°C, 5% CO2 incubator for 72 hours, 50 µL of CellTiter-Glo solution was added to each well, shook and mixed evenly, and incubated in the dark for 10 minutes, and a BioTek Synergy H1 microplate reader was used for reading. Experimental data processing method: The luminescence signal value was used to calculate the inhibition rate. Graphpad Prism software was used to fit the concentration and inhibition rate to a nonlinear regression curve, so as to obtain the IC50 value, as shown in the Table below for details.

[1] = tested on: Ba/F3 EGFR Del19/T790M/C797S; experiment: as above; assay type: cell-based; details: Mus musculus, 72 hours, read-out: Ba/F3 EGFR Del19_T790M_C797S IC50
Procedure: as §1

[2] = Solid stability experiment of crystal forms of salts (7 and 14 days); assay type: physicochemical
Procedure: • 3.1 Experimental objective: To investigate the physical and chemical stability for different crystal forms of salts under the conditions of a high temperature of 60°C (GW), a high humidity of RH = 92.5% (GS), and both a high temperature of 50°C and a high humidity of RH = 75% (JS) and provide a basis for the screening of the crystal forms of salts and the storage of the crystal forms of salts of the compound. • 3.2 Experimental scheme: Different crystal forms of salts (crystal form A of hydrochloride, crystal form A of sulphate, crystal form A of citrate, crystal form A of oxalate, crystal form A of maleate and crystal form A of salicylate) were accurately weighed, and the stability of the crystal forms was investigated for 7 and 14 days under the three conditions of 60°C (GW), 92.5% RH (room temperature, GS), and 50°C/75% RH (JS). […] Therefore, they can well meet the requirements of subsequent drug development. […] Therefore, they both satisfy the requirements for subsequent drug storage.

[3] = Solubility experiments in different media, crystal forms of salts; assay type: physicochemical; parameters: thermodynamic solubility FaSSIF / thermodynamic solubility FaSSGF / thermodynamic solubility FeSSIF: unit not given here; details: about 2 mg suspended for 24 hours, 37°C, HPLC, external standard method; for thermodynamic solubility FaSSGF: FaSSGF (artificial simulated gastric fluid); for thermodynamic solubility FaSSIF: FaSSIF (fasted-state artificial simulated intestinal fluid); for thermodynamic solubility FeSSIF: FeSSIF (fed-state artificial simulated intestinal fluid)
Source text: 4.1 Experimental objective: The solubility of the crystal form A of phosphate, crystal form A of hydrochloride, crystal form A of sulphate, crystal form A of citrate, crystal form A of oxalate, crystal form A of maleate and crystal form A of salicylate in media such as artificial simulated gastric fluid (FaSSGF), fasted-state artificial simulated intestinal fluid (FaSSIF), and fed-state artificial simulated intestinal fluid (FeSSIF) was compared to provide a basis for the evaluation of the potential of the crystal forms of salts being manufactured as a drug. […]

[4] = Hygroscopicity experiment (crystal forms of salts and crystal form A of free base); assay type: physicochemical; details: for weight gain after moisture absorption / hygroscopicity: RH 80%; for hygroscopicity: result in words; for crystal form transformation (XRPD pattern): after 1 cycle of moisture absorption and desorption, 0-95% relative humidity
Source text: • 2.1 Experimental objective: The hygroscopicity of different crystal forms of salts of the compound was investigated under various relative humidity conditions to provide a basis for screening and storage of the crystal forms of salts of the compound. • 2.2 Experimental scheme: The crystal forms of salts of the compound were placed in saturated water vapor at different relative humidities to reach a dynamic equilibrium between the compound and the water vapor.
3.1 Experimental objective: The hygroscopicity of crystal form A of free base of the compound was investigated under various relative humidity conditions to provide a basis for screening and storage of the crystal forms of the compound.
3.2 Experimental scheme: The crystal form A of free base of the compound was placed in saturated water vapor at different relative humidities to reach a dynamic equilibrium between the compound and the water vapor. The percentage weight gain of the compound due to moisture absorption was calculated after the equilibrium.

[5] = high temperature, high humidity, and both high temperature and high humidity conditions, 7 and 14 days
[6] = placed for a period of time under various conditions
[7] = high temperature and high humidity conditions, 7 and 14 days

SMILES	IC50 (Ba/F3 EGFR Del19/C797S)	IC50 [1]	stability (impurity increase) [2, 5]	thermodynamic solubility FaSSGF [3]	thermodynamic solubility FaSSIF [3]	thermodynamic solubility FeSSIF [3]	weight gain after moisture absorption [4]	hygroscopicity [4]	crystal form transformation (XRPD pattern) [4]	stability (impurity increase) [2, 6]	stability (impurity increase) [2, 7]
CC(C)c1c(F)cc(N2CC(N(C)S(C)(=O)=O)C2)c2cnc(Nc3ccnc(-c4cn(C)nc4Cl)n3)cc12 [Example 3, N-(1-(3-((2-(3-chloro-1-methyl-1H-pyrazol-4-yl)pyrimidin-4-yl)amino)-6-fluoro-5-isopropylisoquinolin-8-yl)azetidin-3-yl)-N-methylmethanesulphonamide]	0.014 µM										
Cc1nn(C)cc1-c1nccc(Nc2cc3c(C(C)C)c(F)cc(N4C[C@H](CS(C)(=O)=O)[C@H]4C)c3cn2)n1 [Example 4, N-(2-(1,3-dimethyl-1H-pyrazol-4-yl)pyrimidin-4-yl)-6-fluoro-5-isopropyl-8-((2R,3S)-2-methyl-3-((methanesulphonyl)methyl)azetidin-1-yl)isoquinolin-3-amine]	0.018 µM	0.0068 µM									
Cc1nn(C)cc1-c1nccc(Nc2cc3c(C(C)C)c(F)cc(N4CC(N(C)S(C)(=O)=O)C4)c3cn2)n1 [Example 6, N-(1-(3-((2-(1,3-dimethyl-1H-pyrazol-4-yl)pyrimidin-4-yl)amino)-6-fluoro-5-isopropylisoquinolin-8-yl)azetidin-3-yl)-N-methylmethanesulphonamide]	0.022 µM										
CC(C)c1c(F)cc(N2CC(NS(C)(=O)=O)C2)c2cnc(Nc3ccnc(-c4cn(C)nc4Cl)n3)cc12 [Example 13, N-(1-(3-((2-(3-chloro-1-methyl-1H-pyrazol-4-yl)pyrimidin-4-yl)amino)-6-fluoro-5-isopropylisoquinolin-8-yl)azetidin-3-yl)methanesulphonamide]	0.019 µM										
CC(C)c1c(F)cc(N2C[C@H](N(C)S(C)(=O)=O)[C@H]2C)c2cnc(Nc3ccnc(-c4cn(C)nc4Cl)n3)cc12 [crystal form A of citrate, N-((2R,3S)-1-(3-((2-(3-chloro-1-methyl-1H-pyrazol-4-yl)pyrimidin-4-yl)amino)-6-fluoro-5-isopropylisoquinolin-8-yl)-2-methylazetidin-3-yl)-N-methylmethanesulphonamide]			relatively stable	0.053	0.159	>0.870	0.573%	weak hygroscopicity	no crystal form transformation occurred		
CC(C)c1c(F)cc(N2C[C@H](N(C)S(C)(=O)=O)[C@H]2C)c2cnc(Nc3ccnc(-c4cn(C)nc4Cl)n3)cc12 [crystal form A of hydrochloride, N-((2R,3S)-1-(3-((2-(3-chloro-1-methyl-1H-pyrazol-4-yl)pyrimidin-4-yl)amino)-6-fluoro-5-isopropylisoquinolin-8-yl)-2-methylazetidin-3-yl)-N-methylmethanesulphonamide]				0.072	0.214	>1.016				remain stable	
CC(C)c1c(F)cc(N2C[C@H](N(C)S(C)(=O)=O)[C@H]2C)c2cnc(Nc3ccnc(-c4cn(C)nc4Cl)n3)cc12 [crystal form A of maleate, N-((2R,3S)-1-(3-((2-(3-chloro-1-methyl-1H-pyrazol-4-yl)pyrimidin-4-yl)amino)-6-fluoro-5-isopropylisoquinolin-8-yl)-2-methylazetidin-3-yl)-N-methylmethanesulphonamide]				0.075	0.029	>1.020	2.050%		no crystal form transformation occurred		relatively stable
CC(C)c1c(F)cc(N2C[C@H](N(C)S(C)(=O)=O)[C@H]2C)c2cnc(Nc3ccnc(-c4cn(C)nc4Cl)n3)cc12 [crystal form A of oxalate, N-((2R,3S)-1-(3-((2-(3-chloro-1-methyl-1H-pyrazol-4-yl)pyrimidin-4-yl)amino)-6-fluoro-5-isopropylisoquinolin-8-yl)-2-methylazetidin-3-yl)-N-methylmethanesulphonamide]			relatively stable	0.070	0.035	1.228	1.707%	weak hygroscopicity	no crystal form transformation occurred		
CC(C)c1c(F)cc(N2C[C@H](N(C)S(C)(=O)=O)[C@H]2C)c2cnc(Nc3ccnc(-c4cn(C)nc4Cl)n3)cc12 [crystal form A of salicylate, N-((2R,3S)-1-(3-((2-(3-chloro-1-methyl-1H-pyrazol-4-yl)pyrimidin-4-yl)amino)-6-fluoro-5-isopropylisoquinolin-8-yl)-2-methylazetidin-3-yl)-N-methylmethanesulphonamide]				0.020	0.101	0.672	0.1374%	weak hygroscopicity	no crystal form transformation occurred		relatively stable
CC(C)c1c(F)cc(N2C[C@H](N(C)S(C)(=O)=O)[C@H]2C)c2cnc(Nc3ccnc(-c4cn(C)nc4Cl)n3)cc12 [crystal form A of sulphate, N-((2R,3S)-1-(3-((2-(3-chloro-1-methyl-1H-pyrazol-4-yl)pyrimidin-4-yl)amino)-6-fluoro-5-isopropylisoquinolin-8-yl)-2-methylazetidin-3-yl)-N-methylmethanesulphonamide]				0.096	0.034	1.114	4.616%		no crystal form transformation occurred	remain stable	
CC(C)c1c(F)cc(N2C[C@H](N(C)S(C)(=O)=O)[C@H]2C)c2cnc(Nc3ccnc(-c4cn(C)nc4Cl)n3)cc12 [crystal form B of hydrochloride, N-((2R,3S)-1-(3-((2-(3-chloro-1-methyl-1H-pyrazol-4-yl)pyrimidin-4-yl)amino)-6-fluoro-5-isopropylisoquinolin-8-yl)-2-methylazetidin-3-yl)-N-methylmethanesulphonamide]							1.157%	weak hygroscopicity	no crystal form transformation occurred		
